# Data from US20260042731A1, “(2,4-DICHLOROPHENOXY)ACETIC ACID ANALOGS” (CORTEVA AGRISCIENCE LLC, priority 2022, published 2026).
# Like-named read-outs stand apart in the source and are kept apart here.
# Columns and labels:
# Corn (ZEAMX) = assay: Greenhouse post-emergence mixture trials, percent visual control; assay type: in vivo; settings: ZEAMX, 21 DAA, no mixing partner; for % Control / plant injury at 560 g/ha: compound 560 g ae/ha
# [1] = system: Ambrosia artemisiifolia (AMBEL), common ragweed; assay: Postemergence herbicide evaluation, growth of Ambrosia artemisiifolia (AMBEL); assay type: in vivo; settings: Ambrosia artemisiifolia, post-emergence, percent reduction in plant size vs untreated control, read-out: AVE. AMBEL; for pest or weed control at 280 g/ha: 280 g ae/ha; for pest or weed control at 560 g/ha: 560 g ae/ha
# [2] = system: Common Lambsquarters (CHEAL); assay: Greenhouse post-emergence mixture trials, percent visual control; assay type: in vivo; settings: CHEAL, 21 DAA; for pest or weed control at 560 g/ha / pest or weed control at 1120 g/ha: Chenopodium album, post-emergence, 504 h, no mixing partner; for pest or weed control at 1120 g/ha: read-out: % Control
# [3] = system: glyphosate resistant Conyza canadensis (L.) (ERICA), horseweed; assay: Postemergence herbicide evaluation, growth of Conyza canadensis (ERICA); assay type: in vivo; settings: Erigeron canadensis, post-emergence, percent reduction in plant size vs untreated control, read-out: Ave. ERICA; for pest or weed control at 280 g/ha: 280 g ae/ha; for pest or weed control at 560 g/ha: 560 g ae/ha
# [4] = Volatility of compounds measured by thermogravimetric analysis (TGA); assay type: physicochemical
# [5] = system: weeds ABUTH, AMATA, AMBEL, CHEAL, ERICA; assay: Postemergence herbicide evaluation, overall average % weed control across ABUTH, AMATA, AMBEL, CHEAL and ERICA; assay type: in vivo; settings: post-emergence, average over five weeds, read-out: Overall Ave % Weed Control; for pest or weed control at 280 g/ha: 280 g ae/ha; for pest or weed control at 560 g/ha: 560 g ae/ha
# [6] = system: Chenopodium album (CHEAL), common lambsquarters; assay: Postemergence herbicide evaluation, growth of Chenopodium album (CHEAL); assay type: in vivo; settings: Chenopodium album, post-emergence, percent reduction in plant size vs untreated control, read-out: Ave. CHEAL; for pest or weed control at 280 g/ha: 280 g ae/ha; for pest or weed control at 560 g/ha: 560 g ae/ha
# [7] = system: Amaranthus rudis (AMATA), tall water hemp; assay: Postemergence herbicide evaluation, growth of Amaranthus rudis (AMATA); assay type: in vivo; settings: Amaranthus tuberculatus, post-emergence, percent reduction in plant size vs untreated control, read-out: Ave. AMATA; for pest or weed control at 280 g/ha: 280 g ae/ha; for pest or weed control at 560 g/ha: 560 g ae/ha
# Velvetleaf (ABUTH) = assay: Greenhouse post-emergence mixture trials, percent visual control; assay type: in vivo; settings: ABUTH, 21 DAA; for pest or weed control at 560 g/ha / pest or weed control at 1120 g/ha: Abutilon theophrasti, post-emergence, 504 h; for pest or weed control at 560 g/ha: compound 560 g ae/ha; for pest or weed control at 1120 g/ha: compound 1120 g ae/ha, read-out: % Control
# [8] = system: Abutilon theophrasti (ABUTH), velvetleaf; assay: Postemergence herbicide evaluation, growth of Abutilon theophrasti (ABUTH); assay type: in vivo; settings: Abutilon theophrasti, post-emergence, percent reduction in plant size vs untreated control, read-out: AVE. ABUTH; for pest or weed control at 280 g/ha: 280 g ae/ha; for pest or weed control at 560 g/ha: 560 g ae/ha
# [9] = Trial Bridge 2, compound 560 g ae/ha + Saflufenacil 25 g ai or ae/ha
# [10] = Trial Bridge 2, compound 560 g ae/ha + Saflufenacil 75 g ai or ae/ha
# [11] = Trial Bridge 2, compound 560 g ae/ha + Trifludimoxazin 12.5 g ai or ae/ha
# [12] = Trial Bridge 2, compound 560 g ae/ha + Trifludimoxazin 50 g ai or ae/ha
# [13] = Trial Bridge 2, compound 1120 g ae/ha + Saflufenacil 25 g ai or ae/ha
# [14] = Trial Bridge 2, compound 1120 g ae/ha + Saflufenacil 75 g ai or ae/ha
# [15] = Trial Bridge 2, compound 1120 g ae/ha + Trifludimoxazin 12.5 g ai or ae/ha
# [16] = Trial Bridge 2, compound 1120 g ae/ha + Trifludimoxazin 50 g ai or ae/ha
# [17] = Trial Bridge 1, compound 560 g ae/ha + Arylex 5 g ai or ae/ha
# [18] = Trial Bridge 1, compound 560 g ae/ha + Mesotrione 150 g ai or ae/ha
# [19] = Trial Bridge 1, compound 1120 g ae/ha + Arylex 5 g ai or ae/ha
# [20] = Trial Bridge 1, compound 1120 g ae/ha + Glufosinate 600 g ai or ae/ha
# [21] = Trial Bridge 1, compound 1120 g ae/ha + Mesotrione 150 g ai or ae/ha
# [22] = no mixing partner, Trial Bridge 3
# [23] = Trial Bridge 1, mixing partner none
# [24] = Trial Bridge 2, no mixing partner
compound,measurement,setting,value
O=C(COc1ccc(Cl)cc1Cl)Nc1cccnc1 [Compound D27],% Control,Corn (ZEAMX); Trial Bridge 1,5%
same,% Control,Corn (ZEAMX); Trial Bridge 3,5%
same,plant injury at 560 g/ha,"Corn (ZEAMX); Zea mays, post-emergence, 504 h, Trial Bridge 1",5%
same,plant injury at 560 g/ha,"Corn (ZEAMX); Zea mays, post-emergence, 504 h, Trial Bridge 3",5%
same,plant injury at 1120 g/ha,"Corn (ZEAMX); Zea mays, post-emergence, 504 h, compound 1120 g ae/ha, Trial Bridge 3",5%
same,pest or weed control at 280 g/ha,"[1]; 168 h, 7 DAA",85%
same,pest or weed control at 560 g/ha,"[1]; 168 h, 7 DAA",85%
same,pest or weed control at 280 g/ha,"[1]; 336 h, 14 DAA",77.5%
same,pest or weed control at 560 g/ha,"[1]; 336 h, 14 DAA",99%
same,pest or weed control at 280 g/ha,"[1]; 504 h, 21 DAA",100%
same,pest or weed control at 560 g/ha,"[1]; 504 h, 21 DAA",100%
same,% Control,[2]; [9],100%
same,% Control,[2]; [10],100%
same,% Control,[2]; [11],100%
same,% Control,[2]; [12],100%
same,% Control,[2]; [13],100%
same,% Control,[2]; [14],100%
same,% Control,[2]; [15],100%
same,% Control,[2]; [16],100%
same,% Control,"[2]; Trial Bridge 3, compound 560 g ae/ha + Sulfentrazone 130 g ai/ha",100%
same,% Control,"[2]; Trial Bridge 3, compound 560 g ae/ha + Sulfentrazone 347 g ai/ha",100%
same,% Control,"[2]; Trial Bridge 3, compound 1120 g ae/ha + Sulfentrazone 130 g ai/ha",100%
same,% Control,"[2]; Trial Bridge 3, compound 1120 g ae/ha + Sulfentrazone 347 g ai/ha",100%
same,pest or weed control at 560 g/ha,"[2]; Trial Bridge 2, compound 560 g ae/ha",95%
same,pest or weed control at 1120 g/ha,"[2]; Trial Bridge 2, compound 1120 g ae/ha",98%
same,pest or weed control at 560 g/ha,"[2]; Trial Bridge 3, compound 560 g ae/ha",95%
same,pest or weed control at 1120 g/ha,"[2]; Trial Bridge 3, compound 1120 g ae/ha",100%
same,pest or weed control at 560 g/ha,"[2]; Trial Bridge 1, compound 560 g ae/ha",98%
same,pest or weed control at 1120 g/ha,"[2]; Trial Bridge 1, compound 1120 g ae/ha",100%
same,% Control,[2]; [17],100%
same,% Control,[2]; [18],100%
same,% Control,[2]; [19],100%
same,% Control,[2]; [20],100%
same,% Control,[2]; [21],100%
same,pest or weed control at 280 g/ha,"[3]; 168 h, 7 DAA",67.5%
same,pest or weed control at 560 g/ha,"[3]; 168 h, 7 DAA",85%
same,pest or weed control at 280 g/ha,"[3]; 336 h, 14 DAA",100%
same,pest or weed control at 560 g/ha,"[3]; 336 h, 14 DAA",100%
same,pest or weed control at 280 g/ha,"[3]; 504 h, 21 DAA",98.5%
same,pest or weed control at 560 g/ha,"[3]; 504 h, 21 DAA",99%
same,"TGA Data (rate of weight loss, volatility)",[4],0.01 µg/min
same,pest or weed control at 280 g/ha,"[5]; 168 h, 7 DAA",78%
same,pest or weed control at 560 g/ha,"[5]; 168 h, 7 DAA",84.4%
same,pest or weed control at 280 g/ha,"[5]; 336 h, 14 DAA",87.3%
same,pest or weed control at 560 g/ha,"[5]; 336 h, 14 DAA",97%
same,pest or weed control at 280 g/ha,"[5]; 504 h, 21 DAA",94.9%
same,pest or weed control at 560 g/ha,"[5]; 504 h, 21 DAA",99.3%
same,pest or weed control at 280 g/ha,"[6]; 168 h, 7 DAA",82.5%
same,pest or weed control at 560 g/ha,"[6]; 168 h, 7 DAA",80%
same,pest or weed control at 280 g/ha,"[6]; 336 h, 14 DAA",85%
same,pest or weed control at 560 g/ha,"[6]; 336 h, 14 DAA",97.5%
same,pest or weed control at 280 g/ha,"[6]; 504 h, 21 DAA",94%
same,pest or weed control at 560 g/ha,"[6]; 504 h, 21 DAA",97.5%
same,pest or weed control at 280 g/ha,"[7]; 168 h, 7 DAA",80%
same,pest or weed control at 560 g/ha,"[7]; 168 h, 7 DAA",92%
same,pest or weed control at 280 g/ha,"[7]; 336 h, 14 DAA",92.5%
same,pest or weed control at 560 g/ha,"[7]; 336 h, 14 DAA",90%
same,pest or weed control at 280 g/ha,"[7]; 504 h, 21 DAA",85%
same,pest or weed control at 560 g/ha,"[7]; 504 h, 21 DAA",100%
same,% Control,"Velvetleaf (ABUTH); compound 560 g ae/ha + Sulfentrazone 347 g ai/ha, Trial Bridge 3",100%
same,% Control,"Velvetleaf (ABUTH); compound 1120 g ae/ha + Sulfentrazone 130 g ai/ha, Trial Bridge 3",100%
same,% Control,"Velvetleaf (ABUTH); compound 1120 g ae/ha + Sulfentrazone 347 g ai/ha, Trial Bridge 3",100%
same,pest or weed control at 560 g/ha,Velvetleaf (ABUTH); [22],100%
same,pest or weed control at 1120 g/ha,Velvetleaf (ABUTH); [22],99%
same,pest or weed control at 560 g/ha,Velvetleaf (ABUTH); [23],100%
same,pest or weed control at 1120 g/ha,Velvetleaf (ABUTH); [23],100%
same,pest or weed control at 560 g/ha,Velvetleaf (ABUTH); [24],100%
same,pest or weed control at 1120 g/ha,Velvetleaf (ABUTH); [24],100%
same,% Control,Velvetleaf (ABUTH); [17],100%
same,% Control,"Velvetleaf (ABUTH); Trial Bridge 1, compound 560 g ae/ha + Glufosinate 600 g ai or ae/ha",100%
same,% Control,"Velvetleaf (ABUTH); Trial Bridge 1, compound 560 g ae/ha + Glyphosate 1120 g ai or ae/ha",100%
same,% Control,Velvetleaf (ABUTH); [18],100%
same,% Control,"Velvetleaf (ABUTH); Trial Bridge 1, compound 560 g ae/ha + diclosulam 35 g ai or ae/ha",100%
same,% Control,Velvetleaf (ABUTH); [19],100%
same,% Control,Velvetleaf (ABUTH); [20],100%
same,% Control,"Velvetleaf (ABUTH); Trial Bridge 1, compound 1120 g ae/ha + Glyphosate 1120 g ai or ae/ha",100%
same,% Control,Velvetleaf (ABUTH); [21],100%
same,% Control,"Velvetleaf (ABUTH); Trial Bridge 1, compound 1120 g ae/ha + diclosulam 35 g ai or ae/ha",100%
same,% Control,Velvetleaf (ABUTH); [9],100%
same,% Control,Velvetleaf (ABUTH); [10],100%
same,% Control,Velvetleaf (ABUTH); [11],100%
same,% Control,Velvetleaf (ABUTH); [12],100%
same,% Control,Velvetleaf (ABUTH); [13],100%
same,% Control,Velvetleaf (ABUTH); [14],100%
same,% Control,Velvetleaf (ABUTH); [15],100%
same,% Control,Velvetleaf (ABUTH); [16],100%
same,pest or weed control at 280 g/ha,"[8]; 168 h, 7 DAA",75%
same,pest or weed control at 560 g/ha,"[8]; 168 h, 7 DAA",80%
same,pest or weed control at 280 g/ha,"[8]; 336 h, 14 DAA",81.5%
same,pest or weed control at 560 g/ha,"[8]; 336 h, 14 DAA",98.5%
same,pest or weed control at 280 g/ha,"[8]; 504 h, 21 DAA",97%
same,pest or weed control at 560 g/ha,"[8]; 504 h, 21 DAA",100%
